Test results as given in patent publication US20220046923A1, “HERBICIDAL CINNOLINIUM COMPOUNDS” (SYNGENTA CROP PROTECTION AG, priority 2018, published 2022).

Legend:
Experiment in all cases: Post-emergence efficacy, glasshouse spray test
Format in all cases: in vivo
[1] = system: Amaranthus palmeri (AMAPA); settings: Amaranthus palmeri, post-emergence, 312 h; application rate 1000 g/Ha; evaluated after 13 days; read-out: Control of weed species AMAPA after post-emergence application (100=total damage to plant; 0=no damage to plant)
Summary of the method: (§1)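 Seeds were sown in pots of standard soil and grown for 14 days under controlled glasshouse conditions. Seedlings were sprayed with the compound emulsified via acetone and IF50 and diluted in sodium lauryl ether sulphate (0.25% or 1%) with 1% ammonium sulphate. They were kept at 24/16 °C with 14 h light and 65% humidity and rated for damage on a 0–100 scale after 13 days.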

[2] = system: Chenopodium album (CHEAL); settings: Chenopodium album, post-emergence, 312 h; application rate 1000 g/Ha; evaluated after 13 days; read-out: Control of weed species CHEAL after post-emergence application (100=total damage to plant; 0=no damage to plant)
Summary of the method: as §1

[3] = system: Digitaria sanguinalis (DIGSA); settings: Digitaria sanguinalis, post-emergence, 312 h; application rate 1000 g/Ha; evaluated after 13 days; read-out: Control of weed species DIGSA after post-emergence application (100=total damage to plant; 0=no damage to plant)
Summary of the method: as §1

[4] = system: Echinochloa crus-galli (ECHCG); settings: Echinochloa crus-galli, post-emergence, 312 h; application rate 1000 g/Ha; evaluated after 13 days; read-out: Control of weed species ECHCG after post-emergence application (100=total damage to plant; 0=no damage to plant)
Summary of the method: as §1

[5] = system: Eleusine indica (ELEIN); settings: Eleusine indica, post-emergence, 312 h; application rate 1000 g/Ha; evaluated after 13 days; read-out: Control of weed species ELEIN after post-emergence application (100=total damage to plant; 0=no damage to plant)
Summary of the method: as §1

[6] = system: Euphorbia heterophylla (EPHHL); settings: Euphorbia heterophylla, post-emergence, 312 h; application rate 1000 g/Ha; evaluated after 13 days; read-out: Control of weed species EPHHL after post-emergence application (100=total damage to plant; 0=no damage to plant)
Summary of the method: as §1

[7] = system: Ipomoea hederacea (IPOHE); settings: Ipomoea hederacea, post-emergence, 312 h; application rate 1000 g/Ha; evaluated after 13 days; read-out: Control of weed species IPOHE after post-emergence application (100=total damage to plant; 0=no damage to plant)
Summary of the method: as §1

[8] = system: Lolium perenne (LOLPE); settings: Lolium perenne, post-emergence, 312 h; application rate 1000 g/Ha; evaluated after 13 days; read-out: Control of weed species LOLPE after post-emergence application (100=total damage to plant; 0=no damage to plant)
Summary of the method: as §1

[9] = system: Setaria faberi (SETFA); settings: Setaria faberi, post-emergence, 312 h; application rate 1000 g/Ha; evaluated after 13 days; read-out: Control of weed species SETFA after post-emergence application (100=total damage to plant; 0=no damage to plant)
Summary of the method: as §1

| SMILES | pest or weed control at 1000 g/ha [1] | pest or weed control at 1000 g/ha [2] | pest or weed control at 1000 g/ha [3] | pest or weed control at 1000 g/ha [4] | pest or weed control at 1000 g/ha [5] | pest or weed control at 1000 g/ha [6] | pest or weed control at 1000 g/ha [7] | pest or weed control at 1000 g/ha [8] | pest or weed control at 1000 g/ha [9] |
| --- | --- | --- | --- | --- | --- | --- | --- | --- | --- |
| Cc1c[n+](CC(=O)O)nc2ccccc12 [Compound A66] | 20% | 60% | 0% | 0% | 20% | 20% | 30% | 0% | 0% |
| O=S(=O)([O-])CCC[n+]1ccc2ccccc2n1 [Compound A67] | 100% | 90% | 80% | 60% | 80% | 70% | 80% | 80% | 80% |
| COc1ccc2n[n+](CC(=O)[O-])ccc2c1 [Compound A68] | 60% | 50% | 30% | 50% | 20% | 20% | 20% | 10% | 30% |
| Cc1ccc2n[n+](CC(=O)[O-])ccc2c1 [Compound A69] | 30% | 0% | 30% | 40% | 30% | 40% | 0% | 0% | 30% |
| O=P(O)(O)CCC[n+]1ccc2ccccc2n1 [Compound A70] | 80% | 90% | 80% | 40% | 90% | 80% | 100% | 40% | 60% |
| O=P([O-])(O)CC[n+]1ccc2ccccc2n1 [Compound A71] | 70% | 100% | 80% | 40% | 70% | 90% | 40% | 30% | 70% |
| COP(=O)([O-])CCC[n+]1ccc2ccccc2n1 [Compound A72, 3-cinnolin-2-ium-2-ylpropyl(methoxy)phosphinate] | 70% | 70% | 50% | 50% | 70% | 50% | 100% | 50% | 60% |
| O=P(O)(O)C[n+]1ccc2ccccc2n1 [Compound A73, cinnolin-2-ium-2-ylmethyl(hydroxy)phosphinate chloride] | 10% | 0% | 10% | 10% | 10% | 10% | 30% | 10% | 0% |
| O=C([O-])C[C@H](O)C[n+]1ccc2ccccc2n1 [Compound A74, (3S)-4-cinnolin-2-ium-2-yl-3-hydroxy-butanoate] | 0% | 0% | 0% | 0% | 0% | 10% | 10% | 0% | 0% |
| Cc1cc2ccccc2n[n+]1CCOS(=O)(=O)[O-] [Compound A75] | 100% | 90% | 70% | 30% | 80% | 40% | 30% | 20% | 30% |
| Cc1cc2ccccc2n[n+]1CCCS(=O)(=O)[O-] [Compound A76] | 60% | 60% | 60% | 60% | 60% | 50% | 40% | 30% | 60% |
| Cc1cc2ccccc2n[n+]1CCS(=O)(=O)[O-] [Compound A77, 2-(3-methylcinnolin-2-ium-2-yl)ethanesulfonate] | 100% | 100% | 90% | 30% | 90% | 90% | 80% | 40% | 30% |
| O=S(=O)(O)CC[n+]1ccc2ccc(-c3ccccc3)cc2n1 [Compound A78] | 20% | 0% | 50% | 20% | 70% | 40% | 10% | 0% | 30% |
| O=S(=O)(O)CC[n+]1cc(C2CC2)c2ccccc2n1 [Compound A79] | 60% | 30% | 20% | 20% | 10% | 40% | 40% | 10% | 30% |
| O=S(=O)([O-])CC[n+]1ccc2ccc(C(F)(F)F)cc2n1 [Compound A80] | 0% | 20% | 20% | 20% | 30% | 20% | 0% | 10% | 30% |
| O=S(=O)([O-])CC[n+]1ccc2c(F)cccc2n1 [Compound A81] | 40% | 70% | 20% | 20% | 30% | 90% | 10% | 20% | 20% |
| O=S(=O)([O-])CC[n+]1ccc2cc(F)ccc2n1 [Compound A82] | 90% | 70% | 40% | 20% | 60% | 60% | 40% | 30% | 30% |
| O=S(=O)([O-])CC[n+]1ccc2ccc(F)cc2n1 [Compound A83] | 100% | 100% | 50% | 40% | 80% | 100% | 60% | 50% | 50% |
| O=S(=O)([O-])CC[n+]1ccc2cccc(F)c2n1 [Compound A84] | 100% | 70% | 60% | 20% | 70% | 100% | 50% | 50% | 50% |
